Tests used:
[1] = biological target: T1, Recombinant STAT3 protein (STAT3(G127-I722)) (Homo sapiens, UniProt P40763); experiment: STAT3 Fluorescence Polarization (FP) Assay; type: binding; conditions: STAT3(G127-I722) 25 nM, probe 5-FAM-GpYLPQTV-NH2 2 nM, 45-minute incubation
T1 construct: STAT3(G127-I722)
How it was run: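 STAT3(G127-I722) at 25 nM and 5-FAM-GpYLPQTV-NH2 probe at 2 nM in HEPES pH 7.4 buffer with NaCl, EDTA, Tween 20, DTT; 1% DMSO. FP read after 45 min at room temperature; IC50 by nonlinear regression of mP vs log concentration, binned A ≤100 nM to D >10 μM.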

[2] = biological target: T2, Recombinant STAT6 protein (STAT6(W123-T658)) (Homo sapiens, UniProt P42226); experiment: STAT6 Fluorescence Polarization (FP) Assay; type: binding; conditions: STAT6(W123-T658) 250 nM, probe 5-FAM-ApYKPFQDLI-NH2 2 nM, 45-minute incubation
T2 construct: STAT6(W123-T658)
T2 sequence (P42226 123-658): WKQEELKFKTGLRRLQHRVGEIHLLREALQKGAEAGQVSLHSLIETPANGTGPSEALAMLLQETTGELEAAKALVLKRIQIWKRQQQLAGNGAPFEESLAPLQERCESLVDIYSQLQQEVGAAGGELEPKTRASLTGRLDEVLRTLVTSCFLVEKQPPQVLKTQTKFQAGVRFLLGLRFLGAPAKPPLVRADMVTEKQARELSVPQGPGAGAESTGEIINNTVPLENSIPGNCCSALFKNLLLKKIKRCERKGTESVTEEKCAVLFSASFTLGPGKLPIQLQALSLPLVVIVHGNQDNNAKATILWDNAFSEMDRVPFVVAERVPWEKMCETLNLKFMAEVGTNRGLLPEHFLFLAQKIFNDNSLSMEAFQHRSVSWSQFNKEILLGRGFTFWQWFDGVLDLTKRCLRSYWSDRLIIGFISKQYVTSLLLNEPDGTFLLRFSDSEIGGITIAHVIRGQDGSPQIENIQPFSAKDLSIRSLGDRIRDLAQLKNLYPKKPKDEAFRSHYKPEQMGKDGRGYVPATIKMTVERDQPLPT
How it was run: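 STAT6 (W123-T658) at 250 nM mixed with 2 nM 5-FAM-ApYKPFQDLI-NH2 probe in HEPES pH 7.4 buffer with DTT and Tween 20, 1% DMSO final. Polarization read after 45 min at room temperature; IC50 by nonlinear regression of mP versus log concentration, reported in bins A–D.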

T1 sequence (P40763 127-722, species assumed): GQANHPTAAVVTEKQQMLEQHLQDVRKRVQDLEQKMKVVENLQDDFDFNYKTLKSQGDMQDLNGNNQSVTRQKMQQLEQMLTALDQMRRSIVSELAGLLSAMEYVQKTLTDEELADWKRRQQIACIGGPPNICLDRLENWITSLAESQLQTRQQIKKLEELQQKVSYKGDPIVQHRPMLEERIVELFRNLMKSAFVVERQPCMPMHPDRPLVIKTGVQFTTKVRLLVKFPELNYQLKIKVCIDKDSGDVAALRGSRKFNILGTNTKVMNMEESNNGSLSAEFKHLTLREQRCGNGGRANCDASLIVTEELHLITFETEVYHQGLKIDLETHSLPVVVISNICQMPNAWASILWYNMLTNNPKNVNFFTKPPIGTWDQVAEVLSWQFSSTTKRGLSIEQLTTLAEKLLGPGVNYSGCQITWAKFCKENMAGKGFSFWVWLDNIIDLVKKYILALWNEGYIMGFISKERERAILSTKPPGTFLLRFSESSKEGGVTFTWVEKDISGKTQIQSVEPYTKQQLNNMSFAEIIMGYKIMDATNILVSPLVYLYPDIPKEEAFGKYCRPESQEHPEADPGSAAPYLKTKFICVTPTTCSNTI

Row | IC50 [1] [nM] | IC50 [2] [nM] | Compound
1 | < 100 | 3000 to 30000 | C[C@@H]1[C@@H](n2ccnc2)CN1C(=O)[C@@H]1CC[C@@H]2C[C@H]3C[C@H]3C[C@H](NC(=O)c3cc4cc(C(F)(F)P(=O)(O)O)ccc4s3)C(=O)N21 [Compound 19, ((2-(((3S,6S,7aS,8aR,9aR)-3-((2R,3S)-3-(1H-imidazol-1-yl)-2-methylazetidine-1-carbonyl)-5-oxodecahydro-1H-cyclopropa[d]pyrrolo[1,2-a]azocin-6-yl)carbamoyl)benzo[b]thiophen-5-yl)difluoromethyl)phosphonic acid]
2 | < 100 | 300 to 3000 | NC(=O)Cc1cc(-c2ccccc2)ccc1NC(=O)[C@@H]1CC[C@@H]2C[C@H]3C[C@H]3C[C@H](NC(=O)c3cc4cc(C(F)(F)P(=O)(O)O)ccc4s3)C(=O)N21 [Compound 26, ((2-(((3S,6S,7aS,8aR,9aR)-3-((3-(2-amino-2-oxoethyl)-[1,1′-biphenyl]-4-yl)carbamoyl)-5-oxodecahydro-1H-cyclopropa[d]pyrrolo[1,2-a]azocin-6-yl)carbamoyl)benzo[b]thiophen-5-yl)difluoromethyl)phosphonic acid]
3 | 100 to 1000 | 3000 to 30000 | O=C(N[C@H]1C[C@@H]2C[C@@H]2C[C@H]2CC[C@@H](C(=O)N3CC(Cc4cccnc4)C3)N2C1=O)c1cc2cc(CP(=O)(O)O)ccc2s1 [Example 380, ((2-(((3S,6S,7aS,8aR,9aR)-5-oxo-3-(3-(pyridin-3-ylmethyl)azetidine-1-carbonyl)decahydro-1H-cyclopropa[d]pyrrolo[1,2-a]azocin-6-yl)carbamoyl)benzo[b]thiophen-5-yl)methyl)phosphonic acid]
4 | 100 to 1000 | 3000 to 30000 | O=C(N[C@H]1C[C@@H]2C[C@@H]2C[C@H]2CC[C@@H](C(=O)N3CC(c4ccccc4)C3)N2C1=O)c1cc2cc(C(F)P(=O)(O)O)ccc2s1 (stereo partly drawn) [Example 390, (fluoro(2-(((3S,6S,7aS,8aR,9aR)-5-oxo-3-(3-phenylazetidine-1-carbonyl)decahydro-1H-cyclopropa[d]pyrrolo[1,2-a]azocin-6-yl)carbamoyl)benzo[b]thiophen-5-yl)methyl)phosphonic acid]
5 | < 100 | 3000 to 30000 | O=C(N[C@H]1C[C@H]2C[C@H]2C[C@H]2CC[C@@H](C(=O)N3CC(c4nc5ccccc5[nH]4)C3)N2C1=O)c1cc2cc(C(F)(F)P(=O)(O)O)ccc2s1 [Compound 78, ((2-(((3S,6S,7aR,8aS,9aR)-3-(3-(1H-benzo[d]imidazol-2-yl)azetidine-1-carbonyl)-5-oxodecahydro-1H-cyclopropa[d]pyrrolo[1,2-a]azocin-6-yl)carbamoyl)benzo[b]thiophen-5-yl)difluoromethyl)phosphonic acid]
6 | < 100 | 3000 to 30000 | O=C(N[C@H]1C[C@@H]2C[C@@H]2C[C@H]2CC[C@@H](C(=O)N3CC(c4cnccc4N4CCC4)C3)N2C1=O)c1cc2cc([C@@H](F)P(=O)(O)O)ccc2s1 [Example 421, ((S)-(2-(((3S,6S,7aS,8aR,9aR)-3-(3-(4-(azetidin-1-yl)pyridin-3-yl)azetidine-1-carbonyl)-5-oxodecahydro-1H-cyclopropa[d]pyrrolo[1,2-a]azocin-6-yl)carbamoyl)benzo[b]thiophen-5-yl)fluoromethyl)phosphonic acid]
7 | 100 to 1000 | > 30000 | C[C@]12C[C@H]3CC[C@@H](C(=O)N4CC(c5cccnc5)C4)N3C(=O)[C@@H](NC(=O)c3cc4cc(CP(=O)(O)O)ccc4s3)C[C@H]1C2 [Example 238, ((2-(((3S,6S,7aR,8aS,9aR)-8a-methyl-5-oxo-3-(3-(pyridin-3-yl)azetidine-1-carbonyl)decahydro-1H-cyclopropa[d]pyrrolo[1,2-a]azocin-6-yl)carbamoyl)benzo[b]thiophen-5-yl)methyl)phosphonic acid]
8 | < 100 | 3000 to 30000 | O=C(N[C@H]1C[C@@H]2C[C@@H]2C[C@H]2CC[C@@H](C(=O)N3CC(c4ccccn4)C3)N2C1=O)c1cc2cc(C(F)(F)P(=O)(O)O)ccc2s1 [Compound 97, (difluoro(2-(((3S,6S,7aS,8aR,9aR)-5-ox0-3-(3-(pyridin-2-yl)azetidine-1-carbonyl)decahydro-1H-cyclopropa[d]pyrrolo[1,2-a]azocin-6-yl)carbamoyl)benzo[b]thiophen-5-yl)methyl)phosphonic acid]
9 | < 100 | > 30000 | CCc1ccncc1C1CN(C(=O)[C@@H]2CC[C@@H]3C[C@H]4C[C@H]4C[C@H](NC(=O)c4cc5cc(CP(=O)(O)O)ccc5s4)C(=O)N32)C1 [Example 252, ((2-(((3S,6S,7aS,8aR,9aR)-3-(3-(4-ethylpyridin-3-yl)azetidine-1-carbonyl)-5-oxodecahydro-1H-cyclopropa[d]pyrrolo[1,2-a]azocin-6-yl)carbamoyl)benzo[b]thiophen-5-yl)methyl)phosphonic acid]
10 | 1000 to 10000 | > 30000 | O=C(N[C@H]1C[C@@H]2C[C@@H]2C[C@H]2CC[C@@H](C(=O)N[C@H]3CNC[C@@H]3F)N2C1=O)c1cc2cc(CP(=O)(O)O)ccc2s1 [Example 276, ((2-(((3S,6S,7aS,8aR,9aR)-3-(((3S,4S)-4-fluoropyrrolidin-3-yl)carbamoyl)-5-oxodecahydro-1H-cyclopropa[d]pyrrolo[1,2-a]azocin-6-yl)carbamoyl)benzo[b]thiophen-5-yl)methyl)phosphonic acid]
11 | 100 to 1000 | > 30000 | O=C(N[C@H]1C[C@@H]2C[C@@H]2C[C@H]2CC[C@@H](C(=O)N3CC(n4ccnc4)C3)N2C1=O)c1cc2cc(CP(=O)(O)O)ccc2s1 [Compound 24, ((2-(((3S,6S,7aS,8aR,9aR)-3-(3-(1H-imidazol-1-yl)azetidine-1-carbonyl)-5-oxodecahydro-1H-cyclopropa[d]pyrrolo[1,2-a]azocin-6-yl)carbamoyl)benzo[b]thiophen-5-yl)methyl)phosphonic acid]
12 | < 100 | 300 to 3000 | O=C(N[C@H]1C[C@H]2C[C@H]2C[C@H]2CC[C@@H](C(=O)NCc3c[nH]c4ncccc34)N2C1=O)c1cc2cc(C(F)(F)P(=O)(O)O)ccc2s1 [Compound 124, ((2-(((3S,6S,7aR,8aS,9aR)-3-(((1H-pyrrolo[2,3-b]pyridin-3-yl)methyl)carbamoyl)-5-oxodecahydro-1H-cyclopropa[d]pyrrolo[1,2-a]azocin-6-yl)carbamoyl)benzo[b]thiophen-5-yl)difluoromethyl)phosphonic acid]
13 | 100 to 1000 | > 30000 | O=C(N[C@H]1C[C@@H]2C[C@@H]2C[C@H]2CC[C@@H](C(=O)N3CC(Cc4ccncc4)C3)N2C1=O)c1cc2cc(CP(=O)(O)O)ccc2s1 [Example 352, ((2-(((3S,6S,7aS,8aR,9aR)-5-oxo-3-(3-(pyridin-4-ylmethyl)azetidine-1-carbonyl)decahydro-1H-cyclopropa[d]pyrrolo[1,2-a]azocin-6-yl)carbamoyl)benzo[b]thiophen-5-yl)methyl)phosphonic acid]
14 | 100 to 1000 | 3000 to 30000 | O=C(N[C@H]1C[C@@H]2C[C@@H]2C[C@H]2CC[C@@H](C(=O)N3CCN(C4COC4)CC3)N2C1=O)c1cc2cc(C(F)(F)P(=O)(O)O)ccc2s1 [Compound 43, (difluoro(2-(((3S,6S,7aS,8aR,9aR)-3-(4-(oxetan-3-yl)piperazine-1-carbonyl)-5-oxodecahydro-1H-cyclopropa[d]pyrrolo[1,2-a]azocin-6-yl)carbamoyl)benzo[b]thiophen-5-yl)methyl)phosphonic acid]
15 | < 100 | 3000 to 30000 | CC(=O)N1C[C@@H](F)[C@@H](NC(=O)[C@@H]2CC[C@@H]3C[C@@H]4C[C@@H]4C[C@H](NC(=O)c4cc5cc(C(F)(F)P(=O)(O)O)ccc5s4)C(=O)N32)C1 [Compound 127, ((2-(((3S,6S,7aR,8aS,9aR)-3-(((3S,4R)-1-acetyl-4-fluoropyrrolidin-3-yl)carbamoyl)-5-oxodecahydro-1H-cyclopropa[d]pyrrolo[1,2-a]azocin-6-yl)carbamoyl)benzo[b]thiophen-5-yl)difluoromethyl)phosphonic acid]

Row | Compound | IC50 [1] [nM] | IC50 [2] [nM]
16 | ((S)-fluoro(2-(((3S,6S,7aS,8aR,9aR)-3-(3-(morpholine-4-carbonyl)azetidine-1-carbonyl)-5-oxodecahydro-1H-cyclopropa[d]pyrrolo[1,2-a]azocin-6-yl)carbamoyl)benzo[b]thiophen-5-yl)methyl)phosphonic acid Or ((R)-fluoro(2-(((3S,6S,7aS,8aR,9aR)-3-(3-(morpholine-4-carbonyl)azetidine-1-carbonyl)-5-oxodecahydro-1H-cyclopropa[d]pyrrolo[1,2-a]azocin-6-yl)carbamoyl)benzo[b]thiophen-5-yl)methyl)phosphonic acid [Compound 34] | 100 to 1000 | > 30000
